Test results reported in US8273738B2, “Imidazole derivatives” (priority 2006, dated 2012).

Legend:
[1] = test system: rats with chronic constriction nerve injury; assay: Analgesic effect in rats with chronic constriction nerve injury (von Frey filament); type: in vivo, rat; conditions: oral, dose of 50 mg/kg or less, one hour after administration, von Frey filaments
From the text: Rats with chronic constriction nerve injury were produced by partially modifying the method of Mosconi and Kruger et al. (Pain, vol. 64, pp. 37-57 (1996))
Male Crl:CD(SD) rats were used for the experiments. Under pentobarbital anesthesia, the sciatic nerve of the left hind limb of the rat was exfoliated, and the exfoliated region was wrapped with a polyethylene tube (trade name: Intramedic, size: PE-60, manufactured by Becton Dickinson and Company) of 2 mm in length. On days 14 to 21 after the surgery, the rats were placed in an acrylic connected cage with a wire mesh floor (900 mm (length)×210 mm (depth)×140 mm (height)) consisting of 4 cages connected in a row and allowed to acclimate to the environment for at least 20 minutes, and then, the pain was evaluated.
The von Frey filament (trade name: touch test sensory evaluator, Model number: model 58011, manufactured by Muromachi Kikai) was used to evaluate pain, and the results were calculated as a pain threshold. That is, by using a von Frey filament of different stimulus intensity, stimulation was given to the plantar surface of the injured side of rats with chronic constriction nerve injury, and the stimulus intensity to cause paw withdrawal response was obtained. Then, the 50% pain threshold (Paw withdrawal threshold) (g) was calculated by the up down method of Dixon [Annual Review of Pharmacology and Toxicology, vol. 20, pp. 441-462 (1980)].
In the evaluation of the test compound, rats with 50% pain threshold of less than 4 g were used, and the test compound was dissolved in a 0.5% aqueous methyl cellulose solution and orally administered at a dose of 5 mL/kg. One hour after the administration, the pain threshold was measured using von Frey filaments.

[2] = biological target: T1, CB2 receptor (Rattus norvegicus, UniProt Q9QZN9); assay: Cannabinoid CB2 receptor-binding activity ([3H]CP55940 binding experiment), rat spleen membrane specimen
T1 construct: from tissue; host or cells: rat spleen membrane specimen
T1 sequence (Q9QZN9 1-360): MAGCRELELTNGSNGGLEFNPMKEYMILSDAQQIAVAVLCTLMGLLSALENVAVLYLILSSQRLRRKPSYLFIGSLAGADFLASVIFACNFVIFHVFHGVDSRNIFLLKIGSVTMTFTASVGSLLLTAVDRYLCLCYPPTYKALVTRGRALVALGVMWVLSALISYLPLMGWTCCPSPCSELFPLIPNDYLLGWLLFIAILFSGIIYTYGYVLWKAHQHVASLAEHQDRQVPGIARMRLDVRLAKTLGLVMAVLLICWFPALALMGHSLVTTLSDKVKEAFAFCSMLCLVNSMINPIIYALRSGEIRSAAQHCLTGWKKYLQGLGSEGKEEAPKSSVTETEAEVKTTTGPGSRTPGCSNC
Procedure: A test was carried out according to the method of Hillard et al. [The Journal of Pharmacology and Experimental Therapeutics, vol. 289, p. 1427 (1999)]. A rat forebrain membrane specimen and a rat spleen membrane specimen were prepared and used in a binding experiment for a CB1 receptor and a binding experiment for a CB2 receptor, respectively. The membrane specimen (forebrain: final concentration of 0.5 mg of protein/mL, spleen: final concentration of 2 mg of protein/mL) was incubated together with a test compound and [^3H]CP55940 (manufactured by PerkinElmer) ((−)-cis-3-[2-hydroxy-[3,5-^3H]-4-(1,1-dimethylheptyl)phenyl]-trans-4-(3-hydroxypropyl)cyclohexanol)) (final concentration: 0.5 nmol/L) in an assay buffer (50 mmol/L Tris-HCl buffer (pH 7.4), 1 mmol/L EDTA and 3 mmol/L MgCl2) containing 0.1% bovine serum albumin at 25° C. for 1 hour, and the resulting mixture was filtered using a glass filter GF/C (manufactured by Whatman) treated with 1% polyethyleneimine. After the glass filter was washed with the assay buffer containing 0.2% bovine serum albumin, the radioactivity on the glass filter was measured using a liquid scintillation counter (TRI-CARB 2700TR, manufactured by Packard). The binding amount in the presence of 10 μmol/L […] (manufactured by Tocris) ((R)-(+)-[2,3-dihydro-5-methyl-3-(4-morpholinylmethyl)pyrrolo[1,2,3-de]-1,4-benzoxazin-6-yl]-1-naphthalenylmethanone) was considered to be a non-specific binding amount, and a difference between the total binding amount and the non-specific binding amount was considered to be a specific binding amount. The 50% inhibitory concentration (IC50 value) of the test compound against the specific binding was obtained, and the Ki value of the test substance was calculated from the 50% inhibitory concentration and the Kd value of the [^3H]CP55940 binding.

[3] = biological target: T2, human CB2 receptor (Homo sapiens, UniProt P34972); assay: GTPγS binding experiment via human CB2 receptor (membrane fraction of CHO-K1 cells); type: biochemical; conditions: for Emax: read-out: Emax value (maximum effect of CP55940 as 100%)
T2 construct: expressed in transfected cells
Procedure: A test was carried out according to the method of Hillard et al. [The Journal of Pharmacology and Experimental Therapeutics, vol. 289, p. 1427 (1999)]. As for a membrane specimen, a membrane fraction was prepared from CHO-K1 cells in which a human CB2 receptor [Nature, vol. 365, pp. 61-65 (1993)] was stably expressed and used. The membrane specimen (final concentration: 40 μg of protein/mL) was incubated together with a test compound and [^35S]GTPγS (manufactured by PerkinElmer) (final concentration: 0.05 nmol/L) in an assay buffer (50 mmol/L Tris-HCl buffer (pH 7.4), 100 mmol/L NaCl, 1 mmol/L EDTA, 3 mmol/L MgCl2, and 0.1% bovine serum albumin) containing 20 μmol/L guanosine 5′-diphosphate (GDP) at 30° C. for 1 hour, and the resulting mixture was filtered using a glass filter GF/B (manufactured by Whatman). After the glass filter was washed with the assay buffer, the radioactivity on the glass filter was measured using a liquid scintillation counter (TRI-CARB 2700TR, manufactured by Packard). The binding amount in the presence of 10 μmol/L GTPγS was considered to be a non-specific binding amount, and a difference between the total binding amount and the non-specific binding amount was considered to be a specific binding amount. The ratio of increase in the specific binding amount in the presence of the test compound to the specific binding amount in the absence of the test compound was considered to be an agonistic activity of the test compound. The concentration of the test compound that produces 50% of the maximum effect (EC50 value) was calculated by performing a nonlinear regression analysis using the concentration-response data. The percentage of the maximum effect of the test compound (Emax value) was calculated by considering the maximum effect of CP55940 (manufactured by Tocris) measured at the same time as 100%.

T2 sequence (P34972 whole entry): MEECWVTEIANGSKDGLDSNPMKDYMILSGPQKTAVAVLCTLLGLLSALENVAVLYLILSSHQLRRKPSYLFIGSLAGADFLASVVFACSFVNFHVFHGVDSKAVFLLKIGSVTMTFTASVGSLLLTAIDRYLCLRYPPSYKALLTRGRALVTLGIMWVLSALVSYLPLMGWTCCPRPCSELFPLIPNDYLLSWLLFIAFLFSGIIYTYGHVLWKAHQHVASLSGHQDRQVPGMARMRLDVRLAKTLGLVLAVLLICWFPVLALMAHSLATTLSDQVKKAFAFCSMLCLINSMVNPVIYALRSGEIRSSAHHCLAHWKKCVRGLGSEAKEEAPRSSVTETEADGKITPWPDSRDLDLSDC

SMILES	50% pain threshold (paw withdrawal threshold) [1]	Ki [2] [nM]	EC50 [3] [nM]	Emax [3] [%]
CCN(C)C(=O)c1cncc(-c2cn(CC3(F)CCOCC3)c(C(C)(C)C)n2)n1 [Compound 185, 6-[2-tert-Butyl-1-(4-fluorotetrahydropyran-4-ylmethyl)-1H-imidazol-4-yl]-N-ethyl-N-methylpyrazine-2-carboxamide]	significantly increased the pain threshold	< 1000	< 1000	> 30
CN(C)C(=O)c1cncc(-c2cn(CC3(F)CCOCC3)c(C(C)(C)C)n2)n1 [Compound 186, 6-[2-tert-Butyl-1-(4-fluorotetrahydropyran-4-ylmethyl)-1H-imidazol-4-yl]-N,N-dimethylpyrazine-2-carboxamide]	significantly increased the pain threshold	< 1000	< 1000	> 30
